Measurements from the NIST ThermoML archive (doi:10.1021/je8009978).
± gives the expanded uncertainty stated by the source.

Experiments:
[1] = Liquid
[2] = refractive index (Na D-line) (dimensionless); settings: 298.15 K; 101.33 kPa; Liquid; Standard Abbe refractometry

Structure (SMILES): CC(C)CO [2-methyl-1-propanol]
- mass density ([1]; 298.15 K, 101.33 kPa, Vibrating tube method): 797.6 ± 0.3 kg/m3
- Normal boiling temperature ([1]; Closed cell (Static) method): 107.83 ± 0.2 °C
- refractive index [2]: 1.3939 ± 0.0004
